{
  "source": "patent US20100104567A1",
  "about": "“PHARMACEUTICAL COMPOSITION” (KYOWA HAKKO KIRIN CO., LTD., priority 2007, published 2010)",
  "key": {"[1]": {"test_system": "human colon cancer Colo205 cells", "assay": "Antitumor effect of Flt-3 inhibitor and 5-fluorouracil (5-FU) in mouse models transplanted with Colo205 cells", "format": "in vivo", "conditions": "day 7; BALB/cAJcl-nu mice, s.c. Colo205; Compound 9 20 mg/kg oral twice a day x 5 days; 5-FU 10 mg/kg i.v. once a day x 5 days"}, "[2]": {"test_system": "human pancreatic cancer MIA-Paca-2 cells", "assay": "Antitumor effect of Flt-3 inhibitor and gemcitabine in mouse models transplanted with MIA-Paca-2 cells", "format": "in vivo", "conditions": "day 24; scid mice, s.c. MIA-PaCa-2; Compound 9 25 mg/kg oral twice a day x 5 days; gemcitabine 60 mg/kg i.v. days 0, 3, 7, 10", "procedure": "[formula] […] A. […] B. […] C. Gemcitabine alone group: 60 mg/kg (once a day/days zero, 3, 7, and 10 after the start of administration) D."}, "[3]": {"test_system": "human renal cancer Caki-1 cells", "assay": "Antitumor effect of Flt-3 inhibitor and sunitinib in mouse models transplanted with Caki-1 cells", "conditions": "day 18; BALB/cAJcl-nu mice, s.c. Caki-1 tumor pieces; Compound 9 50 mg/kg oral twice a day days 0-4; sunitinib 40 mg/kg oral twice a day x 5 days (alone days 0-4, combined days 7-11)"}, "[4]": {"test_system": "human acute myeloid leukemia HL-60 cells", "assay": "Antitumor effect of Flt-3 inhibitor and daunorubicin in mouse models transplanted with HL-60 cells", "format": "in vivo", "conditions": "day 17; scid mice, s.c. HL-60; Compound 9 20 mg/kg oral twice a day x 14 days; daunorubicin 2.5 mg/kg i.v. once a day x 3 days", "procedure": "B. Compound 9 alone group: 20 mg/kg (twice a day×14 days)\nC. Daunorubicin alone group: 2.5 mg/kg (once a day×3 days)\nD. Compound 9+daunorubicin: 20 mg/kg (twice a day×14 days) for Compound 9, and 2.5 mg/kg (once a day×3 days) for daunorubicin"}, "[5]": {"test_system": "human acute myeloid leukemia MOLM-13 cells", "assay": "Antitumor effect of Flt-3 inhibitor and cytarabine in mouse models transplanted with MOLM-13 cells", "conditions": "day 14; scid mice, s.c. MOLM-13; Compound 9 5 mg/kg oral twice a day x 14 days; cytarabine 75 mg/kg i.v. once a day x 5 days"}, "[6]": {"test_system": "human acute myeloid leukemia MOLM-13 cells", "assay": "Antitumor effect of Flt-3 inhibitor and Hsp90 inhibitor in mouse models transplanted with MOLM-13 cells", "format": "in vivo", "conditions": "day 7; scid mice, s.c. MOLM-13; Compound P 12.5 mg/kg i.v. twice a day x 5 days; Compound 9 10 mg/kg oral twice a day x 5 days"}, "[7]": {"test_system": "human renal cancer Caki-1 cells", "conditions": "day 10; BALB/cAJcl-nu mice, s.c. Caki-1 tumor pieces; Compound 9 25 mg/kg oral twice a day x 5 days; erlotinib 50 mg/kg oral once a day x 5 days"}, "[8]": {"test_system": "human pancreatic cancer MIA-Paca-2 cells", "assay": "Antitumor effect of Flt-3 inhibitor and cetuximab in mouse models transplanted with MIA-Paca-2 cells", "format": "in vivo", "conditions": "day 24; scid mice, s.c. MIA-PaCa-2; Compound 9 50 mg/kg oral twice a day x 5 days; cetuximab 2.5 mg/head i.v. days 0, 3, 6, 9, 12"}, "[9]": {"test_system": "human colon cancer Colo205 cells", "assay": "Antitumor effect of Flt-3 inhibitor and irinotecan in mouse models transplanted with Colo205 cells", "format": "in vivo", "conditions": "day 11; BALB/cAJcl-nu mice, s.c. Colo205; Compound 9 20 mg/kg oral twice a day x 5 days; irinotecan 67 mg/kg i.v. days 0 and 3", "procedure": "[formula] […] Irinotecan was suspended in physiological saline at a concentration of 6.7 mg/mL. […] A. […] B. […] C. Irinotecan alone group: 67 mg/kg (once a day/days zero and 3 after the start of administration) D."}},
  "note": "Where two headings read alike, the source gives them in different places.",
  "data": [
    {"smiles": "O=c1[nH]cc(F)c(=O)[nH]1", "note": "[Compound 5-FU, 5-fluorouracil, reference compound]", "values": [
      {"measurement": "T/C (V/V0 of group divided by V/V0 of negative control group)", "setting": "[1]", "value": 0.81}
    ]},
    {"smiles": "O=C(c1ccc(/C=C/c2n[nH]c3ccccc23)cc1)N1CCNCC1", "note": "[Compound 9]", "values": [
      {"measurement": "T/C (V/V0 of group divided by V/V0 of negative control group)", "setting": "[2]", "value": 0.84},
      {"measurement": "T/C (V/V0 of group divided by V/V0 of negative control group)", "setting": "[1]", "value": 0.68},
      {"measurement": "T/C (V/V0 of group divided by V/V0 of negative control group)", "setting": "[3]", "value": 0.50},
      {"measurement": "T/C (V/V0 of group divided by V/V0 of negative control group)", "setting": "[4]", "value": 0.42},
      {"measurement": "T/C (V/V0 of group divided by V/V0 of negative control group)", "setting": "[5]", "value": 0.29},
      {"measurement": "T/C (V/V0 of group divided by V/V0 of negative control group)", "setting": "[6]", "value": 0.29},
      {"measurement": "T/C (V/V0 of group divided by V/V0 of negative control group)", "setting": "[7]", "value": 0.71},
      {"measurement": "T/C (V/V0 of group divided by V/V0 of negative control group)", "setting": "[8]", "value": 0.59},
      {"measurement": "T/C (V/V0 of group divided by V/V0 of negative control group)", "setting": "[9]", "value": 0.75}
    ]},
    {"smiles": "CCc1c(O)cc(O)c(C(=O)c2ccc(OCCN3CCOCC3)c(OC)c2)c1CC(=O)N(CCOC)CCOC", "note": "[Compound P, 2-{2-ethyl-3,5-dihydroxy-6-[3-methoxy-4-(2-morpholinoethoxy)benzoyl]pheny1]-N,N-bis(2-methoxyethyl)acetamide, reference compound]", "values": [
      {"measurement": "T/C (V/V0 of group divided by V/V0 of negative control group)", "setting": "[6]", "value": 0.53}
    ]},
    {"smiles": "Nc1ccn([C@@H]2O[C@H](CO)[C@@H](O)[C@@H]2O)c(=O)n1", "note": "[Cytarabine, reference compound]", "values": [
      {"measurement": "T/C (V/V0 of group divided by V/V0 of negative control group)", "setting": "[5]", "value": 0.62}
    ]},
    {"smiles": "COc1cccc2c1C(=O)c1c(O)c3c(c(O)c1C2=O)C[C@@](O)(C(C)=O)C[C@@H]3O[C@H]1C[C@H](N)[C@H](O)[C@H](C)O1", "note": "[Daunorubicin, reference compound]", "values": [
      {"measurement": "T/C (V/V0 of group divided by V/V0 of negative control group)", "setting": "[4]", "value": 0.61}
    ]},
    {"smiles": "C#Cc1cccc(Nc2ncnc3cc(OCCOC)c(OCCOC)cc23)c1", "note": "[Erlotinib, reference compound]", "values": [
      {"measurement": "T/C (V/V0 of group divided by V/V0 of negative control group)", "setting": "[7]", "value": 0.89}
    ]},
    {"smiles": "Nc1ccn([C@@H]2O[C@H](CO)[C@@H](O)C2(F)F)c(=O)n1", "note": "[Gemcitabine, reference compound]", "values": [
      {"measurement": "T/C (V/V0 of group divided by V/V0 of negative control group)", "setting": "[2]", "value": 0.57}
    ]},
    {"smiles": "CCc1c2c(nc3ccc(OC(=O)N4CCC(N5CCCCC5)CC4)cc13)-c1cc3c(c(=O)n1C2)COC(=O)[C@]3(O)CC", "note": "[Irinotecan, reference compound]", "values": [
      {"measurement": "T/C (V/V0 of group divided by V/V0 of negative control group)", "setting": "[9]", "value": 0.65}
    ]},
    {"smiles": "CCN(CC)CCNC(=O)c1c(C)[nH]c(/C=C2\\C(=O)Nc3ccc(F)cc32)c1C", "note": "[Sunitinib, reference compound]", "values": [
      {"measurement": "T/C (V/V0 of group divided by V/V0 of negative control group)", "setting": "[3]", "value": 0.62}
    ]}
  ]
}
